In patent US10669267B2, “Substituted N-[2-(4-phenoxypiperidin-1-yl)-2-(1,3-thiazol-5-yl)ethyl]benzamide and N-[2-(4-benzyloxypiperidin-1-yl)-2-(1,3-thiazol-5-yl)ethyl]benzamide derivatives P2X7 receptor antagonists” (Axxam S.P.A., priority 2016, dated 2020):
Like-named read-outs stand apart in the source and are kept apart here.

What was measured:
rat P2X7R = rat P2X7R (Rattus norvegicus (Rat), UniProt Q64663); test: rat P2X7 Ca2+ influx, Screen Quest Fluo-8 No Wash Calcium Assay Kit (FLIPR TETRA); type: cell-based; conditions: read-out: rP2X7 (IC50; nM)
Procedure: Ca^2+ influx was measured in HEK-293 cells stably transfected with the receptor using Screen Quest™ Fluo-8 No Wash Calcium Assay Kit (AAt Bioquest®). Briefly, once inside the cells, the lipophilic blocking groups of Fluo-8 are cleaved by non-specific cell esterases, resulting in a negatively-charged fluorescent-dye that stays inside cells. Its fluorescence increases upon binding to calcium. When HEK-293/P2X7 cells were stimulated with BzATP, Ca^2+ entered the cells and the fluorescence of Fluo-8 NW increaseed.
To routinely test the compounds, HEK-293 cells stably transfected with rat P2X7R were seeded overnight in growth medium at 10000, 15000 or 20000 cells/well in 384-well plate, according to the level of response after thawing. 24 hours later, the medium was removed and the cells were pre-loaded at RT for 1 hour with 20 μL/w of Fluo-8 NW prepared in Tyrode 0.3 mM Ca^2+/Mg^2+-free.
Compounds were tested at […] according to the following method: • first injection at […] of 10 μL of 3× test compound (in Tyrode's buffer 0.3 mM Ca^2+/Mg^2+-free+DMSO 0.5% final concentration) • 5′ incubation • second injection at […] of 15 µL of 3× BzATP at ˜ECK) (in Tyrode's buffer 0.3 mM Ca^2+/Mg^2+-free+BSA 0.0003% final concentration) • Fluorescence recording for 3′
Between one plate and the following, tips were extensively washed with water, then with 100% DMSO and finally with water to avoid carry-over inside the tips.
The effect of the test compounds was measured as percent inhibition vs a reference antagonist and IC50 values were calculated accordingly.

human P2X7 channel = human P2X7 channel (Homo sapiens (Human), UniProt Q99572); test: human P2X7 channel assay by automated patch-clamp (QPatch16X), BzATP-evoked current; type: cell-based; conditions: HEK-293 cells expressing P2X7, whole-cell voltage clamp, 100 microM BzATP, holding -80 mV; read-out: hP2X7 (IC50; nM)
Procedure: In order to directly monitor the block of P2X7 channel, an electrophysiological assay was developed and implemented on the QPatch16X automated electrophysiology instrument.
HEK-293 cells expressing the P2X7 channels were cultured in modified EMEM.
72 hours before experiment, 5 million cells were seeded onto T225 flasks. Just before the experiment cells were washed twice, detached from the flask with trypsin-EDTA, re-suspended in the suspension solution and placed on the QPatch 16x.
The compounds (20 mM in a 100% DMSO) stored at −20° C. were prepared the day of the experiment (a first dilution 1:20 in 100% DMSO to prepare a 1 mM stock solution, then a 1 microM solution in external solution+a serial dilution 1:10).
The standard whole-cell voltage clamp experiments were performed at room temperature. For these experiments the multihole technology was used and the data were sampled at 2 KHz.
After establishment of the seal and the passage in the whole cell configuration, the cells were held at −80 mV. The P2XR7 current was evoked by applying 100 microM of BzATP alone (4 times) and then in the presence increasing concentrations of the compound under investigation (1, 10, 100 and 1000 nM).
The pre-incubation periods 5 to 8 contain increasing concentrations of the compound of interest (1, 10, 100 and 1000 nM), as illustrated in FIGURE.
The maximal inward current evoked by BzATP in absence or presence of increasing concentrations of the compounds under investigation was measured and normalized.
Y: normalized response, 100% down to 0%, decreasing as X increases.
LogIC50: same log units as X
HillSlope: slope factor or HS, unitless

[1] = Table 4, HEK-293 cells stably transfected with rat P2X7R, BzATP stimulation

human P2X7 channel, sequence (Q99572 whole entry): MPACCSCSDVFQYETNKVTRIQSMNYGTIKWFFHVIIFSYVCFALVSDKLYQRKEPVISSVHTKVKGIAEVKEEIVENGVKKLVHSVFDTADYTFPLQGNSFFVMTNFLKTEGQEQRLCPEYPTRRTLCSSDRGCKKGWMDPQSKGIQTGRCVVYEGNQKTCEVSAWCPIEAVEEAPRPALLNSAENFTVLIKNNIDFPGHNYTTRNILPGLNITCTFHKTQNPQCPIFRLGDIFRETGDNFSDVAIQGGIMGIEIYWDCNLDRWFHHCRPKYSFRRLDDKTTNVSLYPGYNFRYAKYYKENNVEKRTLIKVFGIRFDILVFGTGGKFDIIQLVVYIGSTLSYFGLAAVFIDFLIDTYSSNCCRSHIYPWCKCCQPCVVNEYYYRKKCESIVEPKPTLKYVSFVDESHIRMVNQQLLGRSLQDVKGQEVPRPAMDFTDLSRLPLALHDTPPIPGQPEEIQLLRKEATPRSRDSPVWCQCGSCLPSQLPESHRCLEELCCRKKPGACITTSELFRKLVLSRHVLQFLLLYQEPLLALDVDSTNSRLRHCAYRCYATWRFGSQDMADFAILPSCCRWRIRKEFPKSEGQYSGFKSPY
rat P2X7R, sequence (Q64663 whole entry): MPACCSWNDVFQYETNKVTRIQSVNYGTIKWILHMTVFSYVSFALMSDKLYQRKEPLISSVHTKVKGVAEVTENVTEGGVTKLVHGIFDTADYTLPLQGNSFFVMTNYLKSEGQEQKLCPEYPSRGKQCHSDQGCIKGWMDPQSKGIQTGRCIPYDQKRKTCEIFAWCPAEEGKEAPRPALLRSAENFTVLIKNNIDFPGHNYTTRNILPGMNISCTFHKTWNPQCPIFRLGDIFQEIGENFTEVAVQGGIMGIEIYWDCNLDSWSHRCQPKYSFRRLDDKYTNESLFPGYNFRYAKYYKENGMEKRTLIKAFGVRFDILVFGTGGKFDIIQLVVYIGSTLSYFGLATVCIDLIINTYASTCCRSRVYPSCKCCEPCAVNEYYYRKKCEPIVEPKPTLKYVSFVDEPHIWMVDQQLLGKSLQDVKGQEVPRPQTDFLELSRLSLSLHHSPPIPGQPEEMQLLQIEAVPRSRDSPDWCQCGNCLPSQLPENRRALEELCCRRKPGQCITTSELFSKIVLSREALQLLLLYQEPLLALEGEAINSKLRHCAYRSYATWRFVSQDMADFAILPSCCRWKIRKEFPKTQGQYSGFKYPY

SMILES | IC50 (rat P2X7R; [1]) [nM] | IC50 (human P2X7 channel) [nM] | IC50 (rat P2X7R; Table 5, comparison with Compound 59 of WO2015118019) [nM]
Cc1ncsc1C(CNC(=O)c1c(F)cccc1Cl)N1CCC(Oc2ccc(Cl)cc2)CC1 (stereo not shown) [Compound 8, 2-chloro-N-{2-[4-(4-chlorophenoxy)piperidin-1-yl]-2-(4-methyl-1,3-thiazol-5-yl)ethyl}-6-fluorobenzamide] | 1310 | – | –
O=C(NCC(c1scnc1C(F)F)N1CCC(OCc2ccc(F)c(F)c2)CC1)c1c(F)cccc1Cl (stereo not shown) [Compound 27, 2-chloro-N-{2[4-(difluoromethyl)-1,3-thiazol-5-yl]-2-{4-[(3,4-difluorophenyl)methoxy]piperidin-1-yl}ethyl}-6-fluorobenzamide] | 1210 | – | –
Cc1ncsc1C(CNC(=O)c1c(F)cccc1Cl)N1CCC(OCc2cc(F)cc(F)c2)CC1 (stereo not shown) [Compound 5, 2-chloro-N-(2-{4-[(3,5-difluorophenyl)methoxy]piperidin-1-yl}-2-(4-methyl-1,3-thiazol-5-yl)ethyl)-6-fluorobenzamide] | 506 | 35.1 | –
Cc1ncsc1C(CNC(=O)c1c(F)cccc1Cl)N1CCC(OCc2ccc(Cl)cc2)CC1 (stereo not shown) [Compound 2, 2-chloro-N-(2-{4-[(4-chlorophenyl)methoxy]piperidin-1-yl}-2-(4-methyl-1,3-thiazol-5-yl)ethyl)-6-fluorobenzamide] | 971 | – | –
Cc1ncsc1C(CNC(=O)c1c(F)cccc1Cl)N1CCC(OCc2ccc(F)c(F)c2)CC1 (stereo not shown) [Compound 6, 2-chloro-N-(2-{4-[(3,4-difluorophenyl)methoxy]piperidin-1-yl}-2-(4-methyl-1,3-thiazol-5-yl)ethyl)-6-fluorobenzamide] | 1160 | – | –
Cc1ncsc1C(CNC(=O)c1cccc2ncccc12)N1CCC(Oc2ccc(Cl)cc2)CC1 (stereo not shown) [Compound 20, N-{2-[4-(4-chlorophenoxy)piperidin-1-yl]-2-(4-methyl-1,3-thiazol-5-yl)ethyl}quinoline-5-carboxamide] | 808 | – | –
Cc1ncsc1C(CNC(=O)c1cccc2ncccc12)N1CCC(OCc2ccc(Cl)cc2)CC1 (stereo not shown) [Compound 14, N-(2-{4-[(4-chlorophenyl)methoxy]piperidin-1-yl}-2-(4-methyl-1,3-thiazol-5-yl)ethyl)quinoline-5-carboxamide] | 1120 | – | –
Cc1ncsc1C(CNC(=O)c1cccc2ncccc12)N1CCC(Oc2cc(F)cc(F)c2)CC1 (stereo not shown) [Compound 23, N-{2-[4-(3,5-difluorophenoxy)piperidin-1-yl]-2-(4-methyl-1,3-thiazol-5-yl)ethyl}quinoline-5-carboxamide] | 631 | – | –
Cc1ncsc1C(CNC(=O)c1cccc2ncccc12)N1CCC(OCc2ccccc2F)CC1 (stereo not shown) [Compound 16, N-(2-{4-[(2-fluorophenyl)methoxy]piperidin-1-yl}-2-(4-methyl-1,3-thiazol-5-yl)ethyl)quinoline-5-carboxamide] | 762 | – | –
O=C(NCC(c1scnc1C(F)F)N1CCC(OCc2cc(F)cc(F)c2)CC1)c1c(F)cccc1Cl (stereo not shown) [Compound 26, 2-chloro-N-{2-[4-(difluoromethyl)-1,3-thiazol-5-yl]-2-{4-[(3,5-difluorophenyl)methoxy]piperidin-1-yl}ethyl}-6-fluorobenzamide] | 578 | – | –
O=C(NCC(c1scnc1C(F)F)N1CCC(Oc2ccc(Cl)cc2)CC1)c1c(F)cccc1Cl (stereo not shown) [Compound 28, 2-chloro-N-{2-[4-(4-chlorophenoxy)piperidin-1-yl]-2-[4-(difluoromethyl)-1,3-thiazol-5-yl]ethyl}-6-fluorobenzamide] | 2020 | – | –

Now those with a lower IC50 (rat P2X7R; [1]), led by results:

IC50 (rat P2X7R; [1]) [nM] | IC50 (human P2X7 channel) [nM] | IC50 (rat P2X7R; Table 5, comparison with Compound 59 of WO2015118019) [nM] | SMILES
374 | 36.9 | – | Cc1ncsc1C(CNC(=O)c1cccc2ncccc12)N1CCC(OCc2ccc(F)c(F)c2)CC1 (stereo not shown) [Compound 18, N-(2-{4-[(3,4-difluorophenyl)methoxy]piperidin-1-yl}-2-(4-methyl-1,3-thiazol-5-yl)ethyl)quinoline-5-carboxamide]
252 | – | – | O=C(NCC(c1scnc1C(F)F)N1CCC(OCc2ccccc2F)CC1)c1c(F)cccc1Cl (stereo not shown) [Compound 25, 2-chloro-N-{2-[4-(difluoromethyl)-1,3-thiazol-5-yl]-2-{4-[(2-fluorophenyl)methoxy]piperidin-1-yl}ethyl}-6-fluorobenzamide]
432 | 32.9 | – | Cc1ncsc1C(CNC(=O)c1cccc2ncccc12)N1CCC(OCc2cc(F)cc(F)c2)CC1 (stereo not shown) [Compound 17, N-(2-{4-[(3,5-difluorophenyl)methoxy]piperidin-1-yl}-2-(4-methyl-1,3-thiazol-5-yl)ethyl)quinoline-5-carboxamide]
268 | 26.4 | 268 | Cc1ncsc1C(CNC(=O)c1cccc2ncccc12)N1CCC(Oc2cccc(F)c2)CC1 (stereo not shown) [Compound 21, N-{2-[4-(3-fluorophenoxy)piperidin-1-yl]-2-(4-methyl-1,3-thiazol-5-yl)ethyl}quinoline-5-carboxamide]
216 | – | – | O=C(NCC(c1scnc1C(F)F)N1CCC(Oc2cc(F)cc(F)c2)CC1)c1cccc2ncccc12 (stereo not shown) [Compound 38, N-{2-[4-(difluoromethyl)-1,3-thiazol-5-yl]-2-[4-(3,5-difluorophenoxy)piperidin-1-yl]ethyl}quinoline-5-carboxamide]
371 | 42.1 | – | Cc1ncsc1C(CNC(=O)c1cccc2ncccc12)N1CCC(OCc2ccc(F)cc2)CC1 (stereo not shown) [Compound 13, N-(2-{4-[(4-fluorophenyl)methoxy]piperidin-1-yl}-2-(4-methyl-1,3-thiazol-5-yl)ethyl)quinoline-5-carboxamide]
288 | 11.6 | – | Cc1ncsc1C(CNC(=O)c1cccc2ncccc12)N1CCC(OCc2cccc(F)c2)CC1 (stereo not shown) [Compound 15, N-(2-{4-[(3-fluorophenyl)methoxy]piperidin-1-yl}-2-(4-methyl-1,3-thiazol-5-yl)ethyl)quinoline-5-carboxamide]
295 | – | – | O=C(NCC(c1scnc1C(F)F)N1CCC(Oc2cccc(F)c2)CC1)c1cccc2ncccc12 (stereo not shown) [Compound 36, N-{2-[4-(difluoromethyl)-1,3-thiazol-5-yl]-2-[4-(3-fluorophenoxy)piperidin-1-yl]ethyl}quinoline-5-carboxamide]
402 | 23.6 | – | Cc1ncsc1C(CNC(=O)c1c(F)cccc1Cl)N1CCC(Oc2cccc(F)c2)CC1 (stereo not shown) [Compound 9, 2-chloro-6-fluoro-N-{2-[4-(3-fluorophenoxy)piperidin-1-yl]-2-(4-methyl-1,3-thiazol-5-yl)ethyl}benzamide]
251 | – | – | O=C(NCC(c1scnc1C(F)F)N1CCC(OCc2ccccc2F)CC1)c1cccc2ncccc12 (stereo not shown) [Compound 32, N-{2-[4-(difluoromethyl)-1,3-thiazol-5-yl]-2-{4-[(2-fluorophenyl)methoxy]piperidin-1-yl}ethyl}quinoline-5-carboxamide]
323 | – | – | O=C(NCC(c1scnc1C(F)F)N1CCC(Oc2ccc(Cl)cc2)CC1)c1cccc2ncccc12 (stereo not shown) [Compound 35, N-{2-[4-(4-chlorophenoxy)piperidin-1-yl]-2-[4-(difluoromethyl)-1,3-thiazol-5-yl]ethyl}quinoline-5-carboxamide]
458 | – | – | O=C(NCC(c1scnc1C(F)F)N1CCC(Oc2cc(F)cc(F)c2)CC1)c1c(F)cccc1Cl (stereo not shown) [Compound 31, 2-chloro-N-{2-[4-(difluoromethyl)-1,3-thiazol-5-yl]-2-[4-(3,5-difluorophenoxy)piperidin-1-yl]ethyl}-6-fluorobenzamide]
